{"source": "patent US4923963A", "about": "“Bradykinin antagonist peptides” (Nova Technology Limited Partnership, priority 1987, dated 1990)", "key": {"[1]": {"test_system": "rat blood pressure", "assay": "effects on blood pressure in the anesthetized rat (RBP), intraaortic and intravenous bolus", "type": "in vivo", "experimental": "The in vivo effects of bradykinin antagonists on blood pressure in the anesthetized rat are determined according to the assay described by Roblero, Ryan and Stewart (Res. Commun. Pathol. Pharmacol. 6:207, 1973). The antagonists also produce inhibition of the bradykinin response when injected as a bolus admixture of bradykinin plus antagonist by either the ia or iv route of administration."}, "[2]": {"test_system": "isolated rat uterus", "type": "cell-based", "conditions": "isolated rat uterus; for pA2 /RUT (antagonist potency): number of tissues in parentheses", "experimental": "The bradykinin antagonists were assayed on isolated rat uterus in natural or induced estrus and on guinea pig ileum, according to the commonly accepted assay methods for bradykinin and related kinins as described by Trautschold (Handbook of Expt. Pharmacol. Vol 25, Springer Verlag, pp. 53-55, 1970) for inhibition of the myotropic activity of bradykinin. The inhibition potencies, as determined according to the commonly accepted manner described by Schild for antagonists of biologically active compounds (Br. J. Pharmacol. 2:189, 1947), and expressed as pA2 values are determined on isolated rat uterus (RUT) and isolated guinea pig ileum (GPI). In the assays, a dose-response curve is determined for the reference substance bradykinin. The dose of bradykinin which produced a half maximal contraction of tissue is the ED50 dose. An amount of bradykinin equivalent to twice the ED50 dose is administered to the tissue 30 seconds after the start of incubation of the tissue with a dose of antagonist. Doses of antagonist are increased in this protocol until pre-incubation with a dose of antagonist reduces the contraction in response to the double ED50 dose of bradykinin to response of a single ED50 dose of bradykinin. The pA2 value represents the negative logarithm of the molar concentration of antagonist necessary to reduce the response of a double ED50 dose of bradykinin to that of an ED50 dose. One unit of pA2 value represents an order of magnitude change in potency. For comparison, the negative log of the dose of BK, the dose which causes half maximal contraction of the tissues, is commonly known as the pD2 value. The pD2 value for bradykinin is 7.9 on the rat uterus and 7.4 on the guinea pig ileum."}, "[3]": {"conditions": "rat blood pressure, intraaortic bolus"}, "[4]": {"conditions": "rat blood pressure, intravenous bolus"}}, "note": "Square brackets hold non-standard residues; d marks the D form. Peptide text beside a SMILES is read from it. d2Nal = N[C@H](Cc1ccc2ccccc2c1)C(=O)O; Hyp = O=C(O)[C@@H]1C[C@@H](O)CN1; 2Thi = N[C@@H](Cc1cccs1)C(=O)O; d2Thi = N[C@H](Cc1cccs1)C(=O)O", "data": [{"smiles": "CC[C@@H](C)[C@@H](NC(=O)[C@H](CCCNC(=N)N)NC(=O)[C@H](Cc1ccccc1)NC(=O)[C@@H](Cc1ccccc1)NC(=O)[C@H](CO)NC(=O)[C@H](Cc1ccccc1)NC(=O)CNC(=O)[C@@H]1CCCN1C(=O)[C@@H]1CCCN1C(=O)[C@@H](N)CCCNC(=N)N)C(=O)N[C@@H](Cc1ccc(O)cc1)C(=O)O", "note": "[Example 69, Arg-Pro-Pro-Gly-Phe-Ser-DPhe-Phe-Arg-DIle-Tyr] (H-RPPGFS[dF]FR[dI]Y-OH)", "values": [{"measurement": "RBP-IA: agonist potency as percent of BK potency", "setting": "[1]; [3]", "value": 0.3, "unit": "%"}, {"measurement": "RBP-IV: agonist potency as percent of BK potency", "setting": "[1]; [4]", "value": 2, "unit": "%"}, {"measurement": "% DESTR (metabolic breakdown of BK-like agonists in RBP assay)", "setting": "[1]; relative to BK = 100%", "value": 75, "unit": "%"}]}, {"smiles": "CC[C@@H](C)[C@@H](NC(=O)[C@H](CCCNC(=N)N)NC(=O)[C@H](Cc1cccs1)NC(=O)[C@@H](Cc1ccccc1)NC(=O)[C@H](CO)NC(=O)[C@H](Cc1cccs1)NC(=O)CNC(=O)[C@@H]1CCCN1C(=O)[C@@H]1CCCN1C(=O)[C@@H](N)CCCNC(=N)N)C(=O)N[C@@H](Cc1ccc(O)cc1)C(=O)O", "note": "[Example 71, Arg-Pro-Pro-Gly-Thi-Ser-DPhe-Thi-Arg-DIle-Tyr] (H-RPPG[2Thi]S[dF][2Thi]R[dI]Y-OH)", "values": [{"measurement": "RBP-IA: agonist potency as percent of BK potency", "setting": "[1]; [3]", "value": 0.2, "unit": "%"}, {"measurement": "RBP-IV: agonist potency as percent of BK potency", "setting": "[1]; [4]", "value": 2, "unit": "%"}, {"measurement": "% DESTR (metabolic breakdown of BK-like agonists in RBP assay)", "setting": "[1]; relative to BK = 100%", "value": 55, "unit": "%"}]}, {"smiles": "N=C(N)NCCC[C@@H](N)C(=O)N[C@@H](CCCNC(=N)N)C(=O)N1CCC[C@H]1C(=O)N1CCC[C@H]1C(=O)NCC(=O)N[C@@H](Cc1cccs1)C(=O)N[C@@H](CO)C(=O)N[C@H](Cc1ccccc1)C(=O)N[C@@H](Cc1cccs1)C(=O)N[C@H](CCCNC(=N)N)C(N)=O", "note": "[Example 57, DArg-Arg-Pro-Pro-Gly-Thi-Ser-DPhe-Thi-DArf-NH2] (H-[dR]RPPG[2Thi]S[dF][2Thi][dR]-NH2)", "values": [{"measurement": "pA2 /RUT: agonist potency as percent of BK potency", "setting": "[2]", "value": 0.003, "unit": "%"}]}, {"smiles": "N=C(N)NCCC[C@H](NC(=O)[C@H](Cc1ccccc1)NC(=O)[C@@H](Cc1ccccc1)NC(=O)[C@H](CO)NC(=O)[C@H](Cc1ccccc1)NC(=O)CNC(=O)[C@@H]1CCCN1C(=O)[C@@H]1CCCN1C(=O)[C@@H](N)CCCNC(=N)N)C(=O)O", "note": "[Example 1, Arg-Pro-Pro-Gly-Phe-Ser-DPhe-Phe-Arg] (H-RPPGFS[dF]FR-OH)", "values": [{"measurement": "pA2 /RUT (antagonist potency)", "setting": "[2]", "value": 5.0}]}, {"smiles": "N=C(N)NCCC[C@H](NC(=O)[C@H](Cc1ccccc1)NC(=O)[C@@H](Cc1cccs1)NC(=O)[C@H](CO)NC(=O)[C@H](Cc1ccccc1)NC(=O)CNC(=O)[C@@H]1C[C@@H](O)CN1C(=O)[C@@H]1CCCN1C(=O)[C@H](N)Cc1cccs1)C(=O)O", "note": "[Example 34, DThi Pro-Hyp-Gly-Phe-Ser-DThi-Phe-Arg] (H-[d2Thi]P[Hyp]GFS[d2Thi]FR-OH)", "values": [{"measurement": "pA2 /RUT: activity class", "setting": "[2]; not quantitated", "value": 0}]}, {"smiles": "N=C(N)NCCC[C@H](NC(=O)[C@H](Cc1cccs1)NC(=O)[C@@H](Cc1ccccc1)NC(=O)[C@H](CO)NC(=O)[C@H](Cc1cccs1)NC(=O)CNC(=O)[C@@H]1CCCN1C(=O)[C@@H]1CCCN1C(=O)[C@@H](Cc1ccc2ccccc2c1)NC(=O)[C@H](N)Cc1ccc2ccccc2c1)C(=O)O", "note": "[Example 25, DNal-DNal-Pro-Pro-Gly-Thi-Ser-DPhe-Thi-Arg] (H-[d2Nal][d2Nal]PPG[2Thi]S[dF][2Thi]R-OH)", "values": [{"measurement": "pA2 /RUT (antagonist potency)", "setting": "[2]", "value": 5.6}]}, {"smiles": "N=C(N)NCCC[C@H](NC(=O)[C@H](CCCCN)NC(=O)[C@@H](N)CCCCN)C(=O)N1CCC[C@H]1C(=O)N1CCC[C@H]1C(=O)NCC(=O)N[C@@H](Cc1cccs1)C(=O)N[C@@H](CO)C(=O)N[C@H](Cc1ccccc1)C(=O)N[C@@H](Cc1cccs1)C(=O)N[C@H](CCCNC(=N)N)C(=O)O", "note": "[Example 44, Lys-Lys-Arg-Pro-Pro-Gly-Thi-Ser-DPhe-Thi-DArg] (H-KKRPPG[2Thi]S[dF][2Thi][dR]-OH)", "values": [{"measurement": "% DESTR (metabolic breakdown of BK-like agonists in RBP assay)", "setting": "[1]; rat, in vivo", "value": 0, "unit": "%"}, {"measurement": "RBP-IA: agonist potency as percent of BK potency", "setting": "[1]; rat, in vivo", "value": 0.2, "unit": "%"}, {"measurement": "RBP-IV: agonist potency as percent of BK potency", "setting": "[1]; rat, in vivo, iv", "value": 14, "unit": "%"}]}]}
